Inhibition and pest or weed control data for ten compounds are collected here from US5484934A, “Isothiazole derivatives, a process for production thereof and uses thereof” (Nihon Nohyaku Co., Ltd., priority 1992, dated 1996).

The subject of experiment [1] is Alternaria mali. Kind of experiment: Inhibition of hypha growth on malt extract agar, Alternaria mali. To be noted: read-out: Controlling effect (growth inhibition rate) ALM.
Experimental: (§1) Each preparation to be tested was added to malt extract agar medium to adjust the concentration to 50 ppm, and the resulting mixture was dispensed into Petri dishes. As an inoculum, a prepared mycerial tuft of each test fungus was punched out together with agar by means of a 4-mm-diameter cork borer and inoculated on medium. The incubation temperature was adjusted to 28±2° .C (or 18±2° C. in the case of Selupula lacrymas).
(§2) The diameter of mycerial tuft was measured 2 to 10 days after the inoculation, and the inhibition rate of hypha growth (the following equation) was measured.
(§3) The controlling effect was evaluated according to the following criterion.
For experiment [2], the system named is Pseudoperonospora cubensis. Kind of experiment: Controlling effect on cucumber Downy mildew. In kind it is in vivo. As to conditions: 168 h, 200 ppm spray, inoculation after 24 hours, read-out: Controlling effect Pc (cucumber downy mildew).
Experiment [3] concerns Trichoderma viride. Briefly: Inhibition of hypha growth on malt extract agar, Trichoderma viride. As to conditions: read-out: Controlling effect (growth inhibition rate) TRV.
Experimental: as §1, §2
The test system of experiment [4] is Cladosporium cladosporioides. Briefly: Inhibition of hypha growth on malt extract agar, Cladosporium cladosporioides. To be noted: read-out: Controlling effect (growth inhibition rate) CLC.
Experimental: as §1, §2
Experiment [5] concerns Aspergillus niger. Kind of experiment: Inhibition of hypha growth on malt extract agar, Aspergillus niger. As to conditions: read-out: Controlling effect (growth inhibition rate) ASN.
Experimental: as §1, §2, §3
The test system of experiment [6] is Rhizopus nigricans. Briefly: Inhibition of hypha growth on malt extract agar, Rhizopus nigricans. To be noted: Rhizopus stolonifer, read-out: Controlling effect (growth inhibition rate) RHS.
Experimental: as §1, §2
In experiment [7] the test system is Pyricularia oryzae. Briefly: whole plant or invertebrate. In kind it is in vivo. As to conditions: 168 h, read-out: Controlling effect Ps (rice blast).
The subject of experiment [8] is Coriolus versicolor. Kind of experiment: Inhibition of hypha growth on malt extract agar, Coriolus versicolor. As to conditions: Trametes versicolor, 28±2° C., 2 to 10 days, read-out: Controlling effect (growth inhibition rate) COV. In kind it is cell-based.
The subject of experiment [9] is Chaetomium globosum. Briefly: Inhibition of hypha growth on malt extract agar, Chaetomium globosum. As to conditions: read-out: Controlling effect (growth inhibition rate) CHG.
Experimental: as §1, §2, §3
The test system of experiment [10] is Fusarium oxysporum. Kind of experiment: Inhibition of hypha growth on malt extract agar, Fusarium oxysporum. As to conditions: read-out: Controlling effect (growth inhibition rate) FUO.
Experimental: as §1, §2, §3
In experiment [11] the test system is Tyromyces palustris. Kind of experiment: Inhibition of hypha growth on malt extract agar, Tyromyces palustris. To be noted: read-out: Controlling effect (growth inhibition rate) TYP.
Experiment [12] deals with Serpula lacrymans. Kind of experiment: Inhibition of hypha growth on malt extract agar, Serpula lacrymans. As to conditions: read-out: Controlling effect (growth inhibition rate) SEL.
The subject of experiment [13] is Botrytis cinerea. Briefly: Controlling effect (curing effect) on cucumber gray mold. In kind it is in vivo. To be noted: 72 h, immersion of inoculated cotyledons, 15° C., read-out: Controlling effect Bc (cucumber gray mold). On the procedure: Controlling effect (curing effect) on cucumber gray mold The cotyledons of potted cucumber plants at the 1 leaf stage were cut off and each of them was inoculated with a mycelial tuft of gray mold fungus (Botrytis cinerea) cultured on PSA medium. After having been placed in a moist chamber at 15° C. for 24 hours, the cotyledons were immersed in a 200 ppm liquid chemical containing each compound of the present invention as active ingredient. […]

The subject of experiment [14] is Phytophthora infestants. Briefly: whole plant or invertebrate. In kind it is in vivo. To be noted: 168 h; read-out: Controlling effect Pi (tomato late blight).

What is called inhibition is the share of the control response that was lost under treatment. On to `COc1nsc(S(=O)(=O)C(F)F)c1C#N` [Compound 140], for which the inhibition at 50 ppm in [1], in experiment [3], in experiment [4], in experiment [5], in [6] and in experiment [8] was 100% in each case. The inhibition at 50 ppm in experiment [9], in experiment [10], in experiment [11] and in [12] was 100% throughout. In addition, the pest or weed control at 200 ppm in [2], in experiment [7], in [13] and in experiment [14] was 95 to 100% each time.
`CS(=O)(=O)c1snc(OC(F)F)c1C#N` [Compound 24, 3-difluoromethoxy-4-cyano-5-methylsulfonylisothiazole]: the inhibition at 50 ppm is 100% in experiment [1]; 100% in experiment [3]; 100% in experiment [4]; 100% in experiment [5]; 85 to 99% in experiment [6]; 100% in experiment [8]. Moreover, the inhibition at 50 ppm is 55 to 84% in [9], 85 to 99% in experiment [10], 100% in [11] and 100% in experiment [12]. Further, the pest or weed control at 200 ppm is 95 to 100% in [2], 95 to 100% in experiment [7], 0 to 59% in experiment [13] and 95 to 100% in experiment [14].
As to `COc1nsc(S(C)(=O)=O)c1C#N` [Compound 20, 3-methoxy-4-cyano-5-methylsulfonylisothiazole], the inhibition at 50 ppm in experiment [1], in [3], in experiment [4], in experiment [5], in experiment [6] and in experiment [8] was 100% throughout. Moreover, the inhibition at 50 ppm in experiment [9], in [10], in [11] and in [12] was 100% throughout. For the same compound, the pest or weed control at 200 ppm in experiment [2] was 95 to 100%; in experiment [7], 95 to 100%; in [13] it was 60 to 79%; in experiment [14] it was 95 to 100%.
Consider `N#Cc1c(O)nsc1S(=O)(=O)c1ccccc1` [Compound 1, 3-hydroxy-4-cyano-5-phenylsulfonylisothiazole], for which the inhibition at 50 ppm in [1] was in the range of 55 to 84%; in experiment [3], 85 to 99%; in experiment [4] it was 55 to 84%; in experiment [5], 55 to 84%; in experiment [6], 85 to 99%; in experiment [8], 85 to 99%. Also, the inhibition at 50 ppm in experiment [9] lay within 85 to 99%; in experiment [10], 55 to 84%; in experiment [11] it was 55 to 84%; in experiment [12] it was 85 to 99%. Further, the pest or weed control at 200 ppm in experiment [2] lay in the range of 60 to 79%; in experiment [7], 80 to 94%; in [13], 0 to 59%; in [14], 60 to 79%.
As to `COc1nsc(S(=O)(=O)c2ccccc2)c1C#N` [Compound 89, 3-methoxy-4-cyano-5-phenylsulfonylisothiazole], the inhibition at 50 ppm in experiment [1], in [3], in [4], in [5], in experiment [6] and in [8] was 100% each time. Moreover, the inhibition at 50 ppm in [9], in experiment [10], in experiment [11] and in [12] was 100% throughout. For the same compound, the pest or weed control at 200 ppm in experiment [2] fell in the range of 80 to 94%; in experiment [7], 95 to 100%; in experiment [13], 60 to 79%; in [14] it was 95 to 100%.
Consider `C#CCOc1nsc(S(=O)(=O)CCOCC)c1C#N` [Compound 82], for which the inhibition at 50 ppm in experiment [1], in experiment [3], in experiment [4], in experiment [5], in experiment [6] and in [8] was 100% each time. Also, the inhibition at 50 ppm in [9], in experiment [10], in experiment [11] and in experiment [12] was 100% in each case. For the same compound, the pest or weed control at 200 ppm in [2] lay in the range of 95 to 100%; in [7], 95 to 100%; in experiment [13], 60 to 79%; in [14], 95 to 100%.
In the case of `COc1nsc([S+](C)[O-])c1C#N` (centres unmarked) [Compound 15, 3-methoxy-4-cyano-5-methylsulfoxyisothiazole], the inhibition at 50 ppm in [1], in [3], in experiment [4], in experiment [5], in experiment [6] and in [8] was 100% throughout. Moreover, the inhibition at 50 ppm in [9], in experiment [10], in experiment [11] and in experiment [12] was 100% throughout. Also, the pest or weed control at 200 ppm is 95 to 100% in [2], 95 to 100% in [7], 60 to 79% in [13] and 95 to 100% in experiment [14].
Take `CC(C)Oc1nsc(S(C)(=O)=O)c1C#N` [Compound 50]: the inhibition at 50 ppm in experiment [1], in experiment [3], in [4], in [5], in experiment [6] and in [8] was 100% in each case. Further, the inhibition at 50 ppm in experiment [9], in experiment [10], in experiment [11] and in experiment [12] was 100% each time. Besides, the pest or weed control at 200 ppm in [2] was in the range of 95 to 100%; in experiment [7] it was 80 to 94%; in experiment [13], 0 to 59%; in experiment [14] it was 80 to 94%.
For the compound `C#CCOc1nsc([S+](C)[O-])c1C#N` (centres unmarked) [Compound 16], the inhibition at 50 ppm is 100% in [1]; 100% in experiment [3]; 100% in experiment [4]; 100% in [5]; 100% in experiment [6]; 85 to 99% in experiment [8]. Moreover, the inhibition at 50 ppm in experiment [9] was 100%; in [10], 85 to 99%; in experiment [11], 100%; in experiment [12], 100%. Moreover, the pest or weed control at 200 ppm lay within 95 to 100% in [2], 80 to 94% in [7], 60 to 79% in [13] and 95 to 100% in experiment [14].
Regarding `COc1nsc(S(=O)(=O)c2ccc(Cl)cc2)c1C#N` [Compound 93], the inhibition at 50 ppm in [1], in experiment [3], in experiment [4], in experiment [5], in experiment [6] and in experiment [8] was 100% in each case. In addition, the inhibition at 50 ppm in experiment [9], in experiment [10], in experiment [11] and in experiment [12] was 100% in each case. Also, the pest or weed control at 200 ppm in [2] lay within 95 to 100%; in [7], 95 to 100%; in [13] it was 60 to 79%; in experiment [14], 95 to 100%.
